This is an account of results in US7112600B1, “Fused-ring compounds and use thereof as drugs” (Japan Tobacco Inc., priority 1999, dated 2006).

Data set [1] in a line: blood concentration when administered to an animal. As to conditions: when administered as a pharmaceutical agent to an animal; statement in words. It counts as in vivo.
In another data set the test system is HCV type 1b. Put plainly: inhibitory activity on HCV type 1b. As to conditions: statement in words, no method described.
The subject of a further data set is HCV type 1a. Put plainly: inhibitory activity on HCV type 1a. As to conditions: statement in words, no method described.
In a further data set the target is T1, HCV polymerase (Hepatitis C virus genotype 1b, UniProt P26663).
T1 construct: a region encoding NS5B (591 amino acids; J Virol 1991 Mar, 65(3), 1105-13) was amplified by PCR; 6 His (N); made in house; host or cells: Escherichia coli
T1 sequence (P26663 2420-3010): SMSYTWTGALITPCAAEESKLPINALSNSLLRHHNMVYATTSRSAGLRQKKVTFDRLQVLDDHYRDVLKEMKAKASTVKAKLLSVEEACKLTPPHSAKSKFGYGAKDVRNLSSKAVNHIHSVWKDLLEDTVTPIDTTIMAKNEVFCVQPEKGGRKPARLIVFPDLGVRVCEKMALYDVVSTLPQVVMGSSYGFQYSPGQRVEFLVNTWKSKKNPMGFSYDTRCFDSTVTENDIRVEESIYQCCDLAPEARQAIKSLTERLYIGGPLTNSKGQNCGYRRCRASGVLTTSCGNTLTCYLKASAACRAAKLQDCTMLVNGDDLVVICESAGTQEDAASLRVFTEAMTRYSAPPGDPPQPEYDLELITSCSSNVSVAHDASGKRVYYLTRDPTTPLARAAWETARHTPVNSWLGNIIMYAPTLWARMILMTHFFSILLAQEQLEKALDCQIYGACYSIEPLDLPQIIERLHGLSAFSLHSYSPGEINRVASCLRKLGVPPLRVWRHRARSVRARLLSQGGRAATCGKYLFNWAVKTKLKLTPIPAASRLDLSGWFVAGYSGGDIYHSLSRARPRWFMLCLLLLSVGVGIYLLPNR
Put plainly: biochemical. As to conditions: read-out: HCV polymerase inhibitory activity IC50. An excerpt: The evaluation of the HCV polymerase inhibitory activity of the compound of the present invention is explained in the following. This polymerase is an enzyme coded for by the non-structural protein region called NS5B on the RNA gene of HCV (EMBO J., 15:12-22, 1996).
i) Preparation of enzyme (HCV polymerase)
Using, as a template, a cDNA clone corresponding to the full length RNA gene of HCV BK strain obtained from the blood of a patient with hepatitis C, a region encoding NS5B (591 amino acids; J Virol 1991 Mar, 65(3), 1105-13) was amplified by PCR. The objective gene was prepared by adding a 6 His tag {base pair encoding 6 continuous histidine (His)} to the 5′ end thereof and transformed to Escherichia coli. The Escherichia coli capable of producing the objective protein was cultured. The obtained cells were suspended in a buffer solution containing a surfactant and crushed in a microfluidizer.
ii) Synthesis of substrate RNA
Using a synthetic primer designed based on the sequence of HCV genomic 3′ untranslated region, a DNA fragment (148 bp) containing polyU and 3′X sequence was entirely synthesized and cloned into plasmid pBluescript SK II(+) (Stratagene). The cDNA encoding full length NSSB, which was prepared in i) above, was digested with restriction enzyme KpnI to give a cDNA fragment containing the nucleotide sequence of from the restriction enzyme cleavage site to the termination codon. This cDNA fragment was inserted into the upstream of 3′ untranslated region of the DNA in pBluescript SK II(+) and ligated. The about 450 bp inserted DNA sequence was used as a template in the preparation of substrate RNA.
RNA was synthesized (37° C., 3 hr) by run-off method using this purified DNA as a template, a promoter of pBluescript SK II(+), MEGAscript RNA synthesis kit (Ambion) and T7 RNA polymerase. DNaseI was added and the mixture was incubated for 1 hr. The template DNA was removed by decomposition to give a crude RNA product.
This RNA was applied to formaldehyde denaturation agarose gel electrophoresis to confirm the quality thereof and preserved at −80° C.
iii) Assay of enzyme (HCV polymerase) inhibitory activity
A test substance (compound of the present invention) and a reaction mixture (30 μl) having the following composition were reacted at 25° C. for 90 min.
10% Trichloroacetic acid at 4° C. and 1% sodium pyrophosphate solution (150 μl) were added to this reaction mixture to stop the reaction. The reaction mixture was left standing in ice for 15 min to insolubilize RNA. This RNA was trapped on a glass filter (Whatman GF/C and the like) upon filtration by suction. This filter was washed with a solution containing 1% trichloroacetic acid and 0.1% sodium pyrophosphate, washed with 90% ethanol and is dried. A liquid scintillation cocktail (Packard) was added and the radioactivity of RNA synthesized by the enzyme reaction was measured on a liquid scintillation counter.
The HCV polymerase inhibitory activity (IC50) of the compound of the present invention was calculated from the values of radioactivity of the enzyme reaction with and without the test substance.
Reaction mixture : HCV polymerase (5 μg/ml) obtained in i), substrate RNA (10 μg/ml) obtained in ii), ATP (50 μM), GTP (50 μM), CTP (50 μM), UTP (2 μM), [5,6-^3H]UTP (46 Ci/mmol (Amersham), […]) 20 mM Tris-HCl (pH 7.5), EDTA (1 mM), MgCl2 (5 mM), NaCl (50 mM), DTT (1 mM), BSA (0.01%)

Where a name gives a salt, the structure may show the parent alone.

Consider `Cl.O=C(O)c1ccc2c(c1)nc(-c1ccc(OCc3cc(N4CCCC4=O)ccc3-c3ccc(Cl)cc3)cc1F)n2C1CCCCC1` [2-{4-[2-(4-chlorophenyl)-5-(2-oxopyrrolidin-1-yl)benzyloxy]-2-fluorophenyl}-1-cyclohexylbenzimidazole-5-carboxylic acid hydrochloride], for which the blood concentration entry in data set [1] is given as “high blood concentration”. Moreover, the “inhibitory activity on HCV type 1b” value in the data set with HCV type 1b is “high inhibitory activity”. For the same molecule, in the data set on HCV type 1a, the “inhibitory activity on HCV type 1a” value is listed as “high inhibitory activity”.

With `COc1cc(CCOc2ccc(-c3nc4cc(C(=O)O)ccc4n3C3CCCCC3)cc2)cc(OC)c1OC` [Example 101, 1-cyclohexyl-2-{4-[2-(3,4,5-trimethoxyphenyl)ethoxy]phenyl}-benzimidazole-5-carboxylic acid], the IC50 on HCV polymerase came to 140 nM.

With `O=C(O)c1ccc2c(c1)nc(-c1ccc(OCCN3c4ccccc4CCc4ccccc43)cc1)n2C1CCCCC1` [Example 116, 1-cyclohexyl-2-{4-[2-(10,11-dihydro-5H-dibenzo[b,f]azepin-5-yl)ethoxy]phenyl}benzimidazole-5-carboxylic acid], on HCV polymerase, the IC50 stood at 370 nM. Consider `O=C(O)c1ccc2c(c1)nc(-c1ccc(Oc3cccc(Oc4ccccc4)c3)cc1)n2C1CCCCC1` [Example 129, 1-cyclohexyl-2-[4-(3-phenoxyphenoxy)phenyl]benzimidazole-5-carboxylic acid], for which, at HCV polymerase, the IC50 came to 120 nM. The same measure, in the same setting: the value for `O=C(O)c1ccc2c(c1)nc(-c1ccc(Oc3cc(-c4cccc(Cl)c4)ncn3)cc1)n2C1CCCCC1` [Example 240, 2-{4-[4-(3-chlorophenyl)-6-pyrimidinyloxy]phenyl}-1-cyclohexylbenzimidazole-5-carboxylic acid] was 55 nM. Same read-out and setting: as for `COC(=O)c1ccc2c(c1)nc(-c1ccc(OCc3cc(C(=O)O)ccc3-c3ccc(Cl)cc3)cc1F)n2C1CCCCC1` [Example 281, methyl 2-{4-[5-carboxy-2-(4-chlorophenyl)benzyloxy]-2-fluorophenyl}-1-cyclohexylbenzimidazole-5-carboxylate hydrochloride], the figure is 52 nM; as for `O=C(O)c1ccc2c(c1)nc(-c1ccc(OC(c3cccnc3)c3cccnc3)cc1F)n2C1CCCCC1` [Example 300, 2-{4-[bis(3-pyridyl)methoxy]-2-fluorophenyl}-1-cyclohexylbenzimidazole-5-carboxylic acid], 45 nM; as for `CN(C)C(=O)c1ccc(-c2ccc(Cl)cc2)c(COc2ccc(-c3nc4cc(-c5nnn[nH]5)ccc4n3C3CCCCC3)c(F)c2)c1` [Example 434, 2-{4-[2-(4-chlorophenyl)-5-(dimethylcarbamoyl)benzyloxy]-2-fluorophenyl}-1-cyclohexyl-5-tetrazol-5-ylbenzimidazole], 11 nM.
